{
  "source": "patent US20170281509A1",
  "about": "“COMPOSITIONS AND METHODS FOR MITIGATING SKIN IRRITATION” (GOJO INDUSTRIES, INC., priority 2014, published 2017)",
  "system": "IL-8 secretion by human dermal keratinocytes",
  "test": "IL-8 secretion (ELISA) in human dermal keratinocytes co-treated with irritant surfactant mixture",
  "type": "cell-based",
  "conditions": "FIG. 1",
  "text": "Interleukin 8 (IL-8) is a chemokine and proinflammatory cytokine produced by macrophages and other cell types such as epithelial cells. It is secreted from keratinocytes in skin in response to inflammatory stimuli. IL-8 is secreted and is an important mediator of the immune reaction in the innate immune system response. IL-8 overexpressed is a biomarker of skin irritation. Thus, the following method may be employed to measure the irritancy potential of an ingredient or combination of ingredients.\nFor Control A, human dermal keratinocytes were left untreated. No irritation is expected, and therefore Control A provided a baseline. For Control B, IL-8 was induced in human dermal keratinocytes by applying a surfactant mixture that is a combination of sodium laureth sulfate and polyquaternium-10. For all other samples, the human dermal keratinocytes were co-treated with the surfactant mixture and a composition containing the ingredient of interest. Decreased IL-8 expression reflects the ingredient's anti-irritation activity. In other words, decreased IL-8 expression reflects reduced irritancy potential.\nIn order to carry out the test method, an assay kit was employed that was obtained from R&D Systems: Human CXCL8/IL-8 Duoset ELISA Kit.\nThe following steps were followed: 1. […] Using a colorimeter, absorbance of each well in the plates was measured at 450 nanometers (nm) within 30 minutes. […]",
  "data": [
    {"substance": "acetyl hexapeptide-51 amide", "values": [
      {"measurement": "effect on IL-8 secretion compared to Control B (in words)", "value": "reduced IL-8 secretion"}
    ]}
  ]
}
